# Reference: patent US20170371042A1, “CONTRAST AGENT FOR OPTICAL IMAGING, USE THEREOF AND APPARATUS USING THE SAME” (KYUNGPOOK NATIONAL UNIVERSITY INDUSTRY- ACADEMIC …, priority 2009, published 2017)
# How the values were obtained:
# [1] = cited from earlier work; for Ece mean: conversion electron; for Decay mode EC (%): electron capture
# [2] = Luminescence imaging using [^18F]FDG; assay type: in vivo; conditions: BALB/c mouse bearing luciferase-transfected 4T1 tumour cells, 1 hour after injecting 409 μCi via tail vein, no luciferin
# Description: A BALB/c mouse with a luciferase-transfected 4T1 tumor was injected with […] of [^18F]FDG via the tail vein. One hour after the injection, the mouse was scanned for 3 minutes in the prone position using IVIS 200. […] The brain (red arrow) and the brown fat (white arrow) are clearly visualized.
# [3] = normal mouse (C3H/HeN), 500 μCi intraperitoneally, 40 minutes post-injection
# Description: 500 mCi of ^124I was injected intraperitoneally into a normal mouse (C3H/HeN, Orient Bio Inc., Korea). 40 minutes after the injection, a luminescence image was obtained by scanning the mouse for 1 minute in the lying position.
Molecule,half-life [1],Ece mean [1] [keV],Decay mode IT (%) ([1]; isomeric transition),luminescence signal in mouse image [2],Decay mode EC (%) [1],uptake seen in luminescence image [3]
[^99mTc]TcO4^−,(6.0 h),14,(100) %,–,–,–
"[131I-].[Na+] [^131I, [^131I]NaI]",(8.0 d),–,–,–,–,–
"[64Cu+2].[Cl-].[Cl-] [^64Cu, [^64Cu]CuCl2]",(12.7 h),–,–,–,–,–
"OC[C@H]1OC(O)[C@H]([18F])[C@@H](O)[C@@H]1O (stereo partly shown) [^18F, [^18F]FDG]",(110 min),–,–,intense signal was detected in the brain and brown fat area on the shoulder,(3) %,–
"[68Ga+3].[Cl-].[Cl-].[Cl-] [^68Ga, [^68Ga]GaCl3]",(68 min),–,–,–,(11) %,–
"[Cl][111In]([Cl])[Cl] [^111In, [^111In]InCl3]",(2.8 d),176,–,–,(100) %,–
"[124I-].[Na+] [^124I, [^124I]NaI]",(4.2 d),–,–,–,(77) %,high uptake in the thyroid and bladder region
